Source: the supplement of paper PMC10307832

Experiments:
Test in all cases: relative viability (nuclei count vs DMSO), 5 days (fraction); higher = more cells survive
[1] = system: NCI-H1755
In short: (§1)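 Each reported value is a median over duplicate plates. It expresses relative viability: treated-well nuclei count divided by vehicle-well nuclei count. Lung cancer cell lines in 1536-well plates were dosed by pin tool a day after seeding, alone with one drug or with a fixed anchor-drug dose plus five library-drug doses (not always all listed) in √10 steps, and nuclei were counted after 5 days.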

[2] = system: NCI-H1915
In short: as §1

[3] = system: NCI-H358
In short: as §1

[4] = system: ABC-1
In short: as §1

[5] = system: NCI-H1993
In short: as §1

[6] = system: HOP-62
In short: as §1

[7] = system: NCI-H2023
In short: as §1

[8] = system: NCI-H1975
In short: as §1

[9] = system: CAL-12T
In short: as §1

[10] = system: NCI-H1666
In short: as §1

[11] = system: EPLC-272H
In short: as §1

[12] = system: EMC-BAC-2
In short: as §1

[13] = system: HCC-78
In short: as §1

[14] = system: NCI-H2085
In short: as §1

[15] = system: NCI-H2126
In short: as §1

[16] = system: UMC-11
In short: as §1

[17] = system: LXF-289
In short: as §1

[18] = system: NCI-H3122
In short: as §1

[19] = system: NCI-H322M
In short: as §1

[20] = system: COR-L 105
In short: as §1

[21] = system: HCC-15
In short: as §1

[22] = system: NCI-H441
In short: as §1

`CC(C)Oc1cc(Nc2nc(N[C@@H](C)c3ccc(F)cn3)ncc2Cl)n[nH]1` [AZ23] + C[C@]1(O)C[C@@H](c2nc(-c3ccc4ccc(-c5ccccc5)nc4c3)c3c(N)nccn32)C1 [Linsitinib] (partner 1 µM) showed a relative viability ([1]; first compound 0.01 µM) of 1.13, a relative viability ([1]; first compound 0.03162 µM) of 1.03 and a relative viability ([1]; first compound 0.3162 µM) of 1.06. The relative viability ([2]; first compound 0.01 µM) was 1.13, the relative viability ([2]; first compound 0.03162 µM) was 1.1 and the relative viability ([2]; first compound 0.3162 µM) was 1.09. The relative viability ([3]; first compound 0.01 µM) was 0.742, the relative viability ([3]; first compound 0.03162 µM) was 0.771 and the relative viability ([3]; first compound 0.3162 µM) was 0.793. It also gave a relative viability ([4]; first compound 0.01 µM) of 0.573, a relative viability ([4]; first compound 0.03162 µM) of 0.916 and a relative viability ([4]; first compound 0.3162 µM) of 0.866. The relative viability ([5]; first compound 0.01 µM) was 0.801, the relative viability ([5]; first compound 0.3162 µM) was 0.724 and the relative viability ([6]; first compound 0.01 µM) was 1.09. For the same compound, the relative viability ([6]; first compound 0.03162 µM) was 0.992, the relative viability ([6]; first compound 0.3162 µM) was 0.95 and the relative viability ([7]; first compound 0.03162 µM) was 0.666. For the same compound, the relative viability ([7]; first compound 0.3162 µM) was 0.731, the relative viability ([8]; first compound 0.01 µM) was 1.13 and the relative viability ([8]; first compound 0.03162 µM) was 1.06. It also gave a relative viability ([8]; first compound 0.3162 µM) of 0.972, a relative viability ([9]; first compound 0.01 µM) of 0.551 and a relative viability ([9]; first compound 0.03162 µM) of 0.724. For the same compound, the relative viability ([9]; first compound 0.3162 µM) was 0.861, the relative viability ([10]; first compound 0.01 µM) was 0.719 and the relative viability ([10]; first compound 0.03162 µM) was 0.943. It also gave a relative viability ([10]; first compound 0.3162 µM) of 0.775, a relative viability ([11]; first compound 0.01 µM) of 1.26 and a relative viability ([11]; first compound 0.03162 µM) of 1.22. For the same compound, the relative viability ([12]; first compound 0.01 µM) was 1.09, the relative viability ([12]; first compound 0.03162 µM) was 0.814 and the relative viability ([12]; first compound 0.3162 µM) was 0.884. It also gave a relative viability ([13]; first compound 0.01 µM) of 0.495, a relative viability ([13]; first compound 0.03162 µM) of 0.431 and a relative viability ([13]; first compound 0.3162 µM) of 0.434. For the same compound, the relative viability ([14]; first compound 0.01 µM) was 1.03, the relative viability ([14]; first compound 0.03162 µM) was 1.02 and the relative viability ([14]; first compound 0.3162 µM) was 0.761. The relative viability ([15]; first compound 0.01 µM) was 0.737, the relative viability ([15]; first compound 0.03162 µM) was 0.739 and the relative viability ([15]; first compound 0.3162 µM) was 0.684. The relative viability ([16]; first compound 0.01 µM) was 1.04, the relative viability ([16]; first compound 0.03162 µM) was 1.04 and the relative viability ([16]; first compound 0.3162 µM) was 1.01. For the same compound, the relative viability ([17]; first compound 0.01 µM) was 1.13, the relative viability ([17]; first compound 0.03162 µM) was 1.1 and the relative viability ([17]; first compound 0.3162 µM) was 0.941. It also gave a relative viability ([18]; first compound 0.01 µM) of 1.01, a relative viability ([18]; first compound 0.03162 µM) of 1.01 and a relative viability ([18]; first compound 0.3162 µM) of 1.06. The relative viability ([19]; first compound 0.01 µM) was 0.919, the relative viability ([19]; first compound 0.03162 µM) was 0.957 and the relative viability ([19]; first compound 0.3162 µM) was 1.13. For the same compound, the relative viability ([20]; first compound 0.01 µM) was 0.664, the relative viability ([20]; first compound 0.03162 µM) was 1.14 and the relative viability ([20]; first compound 0.3162 µM) was 0.808. It also gave a relative viability ([21]; first compound 0.01 µM) of 0.916, a relative viability ([21]; first compound 0.03162 µM) of 0.906 and a relative viability ([21]; first compound 0.3162 µM) of 0.875. It also gave a relative viability ([22]; first compound 0.01 µM) of 0.608, a relative viability ([22]; first compound 0.03162 µM) of 0.622 and a relative viability ([22]; first compound 0.3162 µM) of 0.591.
Work on `CC(C)Oc1cc(Nc2nc(N[C@@H](C)c3ccc(F)cn3)ncc2Cl)n[nH]1` [AZ23] + Cc1nc(NC(=O)N2CCC[C@H]2C(N)=O)sc1-c1ccnc(C(C)(C)C(F)(F)F)c1 [Alpelisib] (partner 2 µM) yielded a relative viability ([1]; first compound 0.01 µM) of 1.12, a relative viability ([1]; first compound 0.03162 µM) of 1.05 and a relative viability ([1]; first compound 0.3162 µM) of 1.09. For the same compound, the relative viability ([2]; first compound 0.01 µM) was 1.17, the relative viability ([2]; first compound 0.03162 µM) was 1.09 and the relative viability ([2]; first compound 0.3162 µM) was 1.04. The relative viability ([3]; first compound 0.01 µM) was 0.937, the relative viability ([3]; first compound 0.03162 µM) was 0.855 and the relative viability ([3]; first compound 0.3162 µM) was 0.928. For the same compound, the relative viability ([4]; first compound 0.01 µM) was 0.717, the relative viability ([4]; first compound 0.03162 µM) was 1.23 and the relative viability ([4]; first compound 0.3162 µM) was 1.14. For the same compound, the relative viability ([5]; first compound 0.01 µM) was 0.597, the relative viability ([5]; first compound 0.3162 µM) was 0.659 and the relative viability ([6]; first compound 0.01 µM) was 1.08. For the same compound, the relative viability ([6]; first compound 0.03162 µM) was 0.973, the relative viability ([6]; first compound 0.3162 µM) was 0.97 and the relative viability ([7]; first compound 0.03162 µM) was 0.675. It also gave a relative viability ([7]; first compound 0.3162 µM) of 0.623, a relative viability ([8]; first compound 0.01 µM) of 0.696 and a relative viability ([8]; first compound 0.03162 µM) of 0.718. The relative viability ([8]; first compound 0.3162 µM) was 0.705, the relative viability ([9]; first compound 0.01 µM) was 0.787 and the relative viability ([9]; first compound 0.03162 µM) was 1.26. It also gave a relative viability ([9]; first compound 0.3162 µM) of 1.28, a relative viability ([10]; first compound 0.01 µM) of 0.869 and a relative viability ([10]; first compound 0.03162 µM) of 1.02. For the same compound, the relative viability ([10]; first compound 0.3162 µM) was 0.92, the relative viability ([11]; first compound 0.01 µM) was 0.873 and the relative viability ([11]; first compound 0.03162 µM) was 1.18. For the same compound, the relative viability ([12]; first compound 0.01 µM) was 0.897, the relative viability ([12]; first compound 0.03162 µM) was 0.791 and the relative viability ([12]; first compound 0.3162 µM) was 0.754. The relative viability ([13]; first compound 0.01 µM) was 0.348, the relative viability ([13]; first compound 0.03162 µM) was 0.286 and the relative viability ([13]; first compound 0.3162 µM) was 0.306. For the same compound, the relative viability ([14]; first compound 0.01 µM) was 1, the relative viability ([14]; first compound 0.03162 µM) was 0.999 and the relative viability ([14]; first compound 0.3162 µM) was 0.938. For the same compound, the relative viability ([15]; first compound 0.01 µM) was 0.768, the relative viability ([15]; first compound 0.03162 µM) was 0.698 and the relative viability ([15]; first compound 0.3162 µM) was 0.769. The relative viability ([16]; first compound 0.01 µM) was 0.883, the relative viability ([16]; first compound 0.03162 µM) was 1.07 and the relative viability ([16]; first compound 0.3162 µM) was 0.943. It also gave a relative viability ([17]; first compound 0.01 µM) of 1.15, a relative viability ([17]; first compound 0.03162 µM) of 1.08 and a relative viability ([17]; first compound 0.3162 µM) of 1.05. The relative viability ([18]; first compound 0.01 µM) was 0.811, the relative viability ([18]; first compound 0.03162 µM) was 0.827 and the relative viability ([18]; first compound 0.3162 µM) was 0.77. It also gave a relative viability ([19]; first compound 0.01 µM) of 0.774, a relative viability ([19]; first compound 0.03162 µM) of 0.774 and a relative viability ([19]; first compound 0.3162 µM) of 0.823. The relative viability ([20]; first compound 0.01 µM) was 0.676, the relative viability ([20]; first compound 0.03162 µM) was 1.33 and the relative viability ([20]; first compound 0.3162 µM) was 0.813. It also gave a relative viability ([21]; first compound 0.01 µM) of 1.13, a relative viability ([21]; first compound 0.03162 µM) of 0.857 and a relative viability ([21]; first compound 0.3162 µM) of 0.877. For the same compound, the relative viability ([22]; first compound 0.01 µM) was 1.05, the relative viability ([22]; first compound 0.03162 µM) was 0.621 and the relative viability ([22]; first compound 0.3162 µM) was 0.576.
